Data set [1] in a line: Half life in Sprague-Dawley rat plasma at 0.5 mg/kg, iv and measured upto 24 hrs by LC-MS/MS analysis. Type of data set: ADME, organism-based.
The nature of data set [2]: AUC in Sprague-Dawley rat plasma at 1 mg/kg,po administered as 60:20:20 PEG400/DMSO/H2O formulation and measured upto 24 hrs in presence of Elacridar by LC-MS/MS analysis. It counts as ADME, organism-based. Details: time < 24 hrs, dose 1 mg/kg, route po. The conditions noted are these: with Elacridar (dose not stated).
Data set [3] in a line: AUC in Sprague-Dawley rat plasma at 1 mg/kg,po administered as 50:50 PEG400/Labrasol formulation and measured upto 24 hrs by LC-MS/MS analysis. Details: dose 1 mg/kg, time < 24 hrs, route po. It counts as ADME, organism-based.
For data set [4], the target named is T1, Tyrosine-protein phosphatase non-receptor type 11 (Homo sapiens, UniProt Q06124).
T1 sequence (Q06124 whole entry): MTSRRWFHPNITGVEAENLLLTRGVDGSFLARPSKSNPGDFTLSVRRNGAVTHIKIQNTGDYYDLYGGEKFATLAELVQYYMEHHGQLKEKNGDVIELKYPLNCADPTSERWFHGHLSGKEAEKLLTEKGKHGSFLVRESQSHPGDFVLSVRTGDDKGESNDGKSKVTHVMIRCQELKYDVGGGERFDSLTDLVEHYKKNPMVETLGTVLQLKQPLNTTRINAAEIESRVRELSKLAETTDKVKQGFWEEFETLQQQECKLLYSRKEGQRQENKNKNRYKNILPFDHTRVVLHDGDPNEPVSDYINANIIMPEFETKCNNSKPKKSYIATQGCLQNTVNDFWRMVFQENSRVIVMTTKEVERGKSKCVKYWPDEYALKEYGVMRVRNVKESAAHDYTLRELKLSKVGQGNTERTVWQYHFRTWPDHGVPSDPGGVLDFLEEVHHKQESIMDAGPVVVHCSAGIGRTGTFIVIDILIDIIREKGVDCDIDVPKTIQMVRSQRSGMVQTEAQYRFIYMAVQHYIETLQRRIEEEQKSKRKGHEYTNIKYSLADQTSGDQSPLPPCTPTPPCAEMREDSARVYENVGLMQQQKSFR
Kind of data set: Allosteric inhibition of recombinant human SHP2 using IRS1 peptide and DiFMUP as substrate incubated for 30 mins followed by DiFMUP addition and measured after 30 mins by fluorescence based microplate reader analysis.

The nature of data set [5]: Kinetic solubility of compound in FaSSGF by LCMS analysis. It counts as ADME. The following applies: read-out: Kinetic_solubility.
Data set [6] is described as follows: Clearance in Sprague-Dawley rat plasma at 0.5 mg/kg, iv and measured upto 24 hrs by LC-MS/MS analysis. Type of data set: ADME, organism-based.
Data set [7] deals with KYSE-520 cell line. Kind of data set: Antiproliferative activity against human KYSE520 cells assessed as inhibition of cell proliferation incubated for 96 hrs by CellTiter-Glo reagent based assay. It counts as functional. The following applies: KYSE-520, 96 h. For orientation: In ATP-based viability assays light output follows the ATP content of the culture.
Data set [8] can be described thus: Volume of distribution at steady state in Sprague-Dawley rat plasma at 0.5 mg/kg, iv and measured upto 24 hrs by LC-MS/MS analysis. It counts as ADME, organism-based. The conditions noted are these: read-out: Vdss.
The target in data set [9] is Voltage-gated inwardly rectifying potassium channel KCNH2 (Homo sapiens, UniProt Q12809). Nature of the data set: Inhibition of human ERG by fluorescence polarization assay. It counts as toxicity.
Sequence of Voltage-gated inwardly rectifying potassium channel KCNH2 (Q12809 whole entry): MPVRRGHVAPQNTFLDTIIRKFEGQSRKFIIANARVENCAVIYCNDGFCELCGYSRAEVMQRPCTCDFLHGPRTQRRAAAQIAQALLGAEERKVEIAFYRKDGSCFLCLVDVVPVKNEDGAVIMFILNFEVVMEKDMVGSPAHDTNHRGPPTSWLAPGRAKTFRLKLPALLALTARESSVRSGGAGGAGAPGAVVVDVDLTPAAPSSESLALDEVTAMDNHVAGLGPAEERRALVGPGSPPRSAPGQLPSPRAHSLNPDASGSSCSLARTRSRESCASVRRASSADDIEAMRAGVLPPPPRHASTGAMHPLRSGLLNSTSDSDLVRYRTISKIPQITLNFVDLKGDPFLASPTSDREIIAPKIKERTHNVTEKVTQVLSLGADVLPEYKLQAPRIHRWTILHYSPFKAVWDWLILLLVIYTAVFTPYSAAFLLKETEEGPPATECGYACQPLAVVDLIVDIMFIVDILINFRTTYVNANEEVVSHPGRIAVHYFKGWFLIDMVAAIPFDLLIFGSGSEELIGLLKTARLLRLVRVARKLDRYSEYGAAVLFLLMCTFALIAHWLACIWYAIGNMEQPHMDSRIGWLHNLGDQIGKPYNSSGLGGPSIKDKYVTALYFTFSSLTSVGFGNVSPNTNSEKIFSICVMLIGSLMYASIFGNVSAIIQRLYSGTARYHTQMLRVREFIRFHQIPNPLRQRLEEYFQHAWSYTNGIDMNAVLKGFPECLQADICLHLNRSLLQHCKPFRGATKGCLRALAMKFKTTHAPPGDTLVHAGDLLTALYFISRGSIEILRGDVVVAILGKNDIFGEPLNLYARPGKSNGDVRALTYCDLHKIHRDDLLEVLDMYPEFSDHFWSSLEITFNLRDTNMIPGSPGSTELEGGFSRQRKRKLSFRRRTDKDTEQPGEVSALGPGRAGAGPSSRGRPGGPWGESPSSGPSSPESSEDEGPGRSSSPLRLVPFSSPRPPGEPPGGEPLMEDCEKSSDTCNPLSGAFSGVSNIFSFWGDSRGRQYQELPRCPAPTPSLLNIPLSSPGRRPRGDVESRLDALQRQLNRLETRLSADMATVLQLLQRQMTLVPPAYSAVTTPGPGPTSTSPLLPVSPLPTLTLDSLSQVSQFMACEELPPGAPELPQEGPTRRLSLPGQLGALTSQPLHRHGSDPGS
A short description of data set [10]: Metabolic stability in human liver microsomes assessed as intrinsic clearance at 1 uM and measured upto 60 mins in presence of NADPH as cofactor by LC-MS/MS analysis. It counts as ADME, Microsome. The conditions noted are these: read-out: CLH.
A short description of data set [11]: Efflux ratio of apparent permeability […] in dog MDCK-MDR1 cells by LC-MS/MS analysis. It counts as ADME, cell-based, Canis lupus familiaris.
The nature of data set [12]: Kinetic solubility of compound in FaSSIF by LCMS analysis. Type of data set: ADME. The conditions noted are these: read-out: Kinetic_solubility.
Data set [13] is described as follows: Metabolic stability in Sprague-Dawley rat liver microsomes assessed as intrinsic clearance at 1 uM and measured upto 60 mins in presence of NADPH as cofactor by LC-MS/MS analysis. It counts as ADME, Microsome. The following applies: read-out: CLH.
The nature of data set [14]: Oral bioavailability in Sprague-Dawley rat plasma at 1 mg/kg administered as 60:20:20 PEG400/DMSO/H2O formulation and measured upto 24 hrs by LC-MS/MS analysis. Type of data set: ADME, organism-based.
Data set [15] in a line: AUC in Sprague-Dawley rat plasma at 1 mg/kg,po administered as 60:20:20 PEG400/DMSO/H2O formulation and measured upto 24 hrs by LC-MS/MS analysis. Type of data set: ADME, organism-based. Further details: time < 24 hrs, dose 1 mg/kg, route po.
Data set [16] is described as follows: Kinetic solubility of compound in FeSSIF by LCMS analysis. Type of data set: ADME. The following applies: read-out: Kinetic_solubility.
A short description of data set [17]: Inhibition of ERK phosphorylation in human KYSE520 cells incubated for 2 hrs by TR-FRET assay. It counts as cell-based. The conditions noted are these: KYSE-520, 2 h.
Data set [18] in a line: Apparent permeability of compound in dog MDCK-MDR1 cells by LC-MS/MS analysis. Type of data set: ADME, cell-based, Canis lupus familiaris.
Data set [19] can be described thus: Cmax in Sprague-Dawley rat plasma at 1 mg/kg, po administered as 60:20:20 PEG400/DMSO/H2O formulation and measured upto 24 hrs by LC-MS/MS analysis. Type of data set: ADME, organism-based. Further details: dose 1 mg/kg, time < 24 hrs, route po.

≈ marks a conversion by molar mass, not a printed value.

Usually half-life stands for how long it takes for the measured level to halve. A low value points to fast loss. The term AUC denotes concentration integrated over time. As usually defined, the IC50 is the midpoint of a concentration-inhibition curve. For orientation: clearance means the volume of plasma or blood freed of the substance per unit of time. A low value points to inefficient removal. As usually defined, the bioavailability is dose-corrected exposure relative to a reference, in per cent. A higher bioavailability goes with good availability. The Papp is the rate of passage across a membrane or cell layer, normalised by area and donor concentration. The Cmax is the maximum level reached in the sampled fluid or tissue.

In turn, `Cc1csc([C@@]2(CN)[C@@H]3CN(c4cnc5c(-c6ccc7nn(C)cc7c6Cl)n[nH]c5n4)C[C@@H]32)n1` gave a half-life in [1] of 1.9 h. In addition, the AUC at 24 h in data set [2] was 0.58 µM·h; in [3] it was 0.05 µM·h; in data set [15] it was 0.01 µM·h. Moreover, the IC50 is 5 nM in data set [4], 166 nM in data set [7], greater than 30000 nM in [9] and 24 nM in data set [17]. Also, the solubility kinetic in data set [5] was 175 µM (≈ 86.1 µg/mL); in data set [12], 124 µM (≈ 61 µg/mL); in data set [16], 168 µM (≈ 82.7 µg/mL). Moreover, in data set [6], the clearance worked out at 16.2 mL/min/kg. Further, the Vd in [8] stood at 1 L/kg. Further, the microsomal CLint at 1 µM in [10] turned out to be 13.5 µL/min/mg; in data set [13], 25 µL/min/mg. Moreover, the Ratio in data set [11] was determined as 0.7. In data set [14], this compound yielded a bioavailability of 1.2%. Besides, in [18], the apparent permeability coefficient (Papp) is 9.2 ×10⁻⁶ cm/s. In [19], the Cmax was determined as 10 nM.

The values are drawn from ChEMBL document CHEMBL5257132, “Discovery of a Novel Series of Potent SHP2 Allosteric Inhibitors” (ACS Med Chem Lett, 2023).
